The values below come from patent US20020045574A1, “Glycopeptide antibacterial compounds and methods of using same” (priority 2000, published 2002).

Assay [1] has as its system E. faecium CL 4931 (VanA). Description: Strain antibiotic susceptibility phenotype (MIC interpretive standards). The assay is classed as cell-based. An excerpt:
(§1) The test panel currently includes eight enterococci and 13 staphylococci, which are selected based upon their antibiotic susceptibility profiles. The methicillin-sensitive Staphylococcus aureus (MSSA) strain MB2985 (Smith isolate) is used to assesses the potential for serum protein binding of the compounds. The paired Gram-negative strains ASP #49 (envA−) and ASP #50 (envA+) (M. Salvatore/N. Lee) are included to judge membrane effects. Table 1 presents a detailed description of the strains included in the panel, including some of the sources of the strains of bacteria.

Assay [2] has as its system E. faecium CL 5053 (VanA). The assay is described as above. In kind it is cell-based.
Description: as §1

Assay [3] relates to E. faecium RLA1. Described as above. The assay is classed as cell-based.
Description: as §1

The subject of assay [4] is E. gallinarum CL 4886 (VanC). Described as above. In kind it is cell-based.
Description: as §1

For assay [5], the system named is E. faecalis MB2864. The description is as above. The assay is classed as cell-based.
Description: as §1

Assay [6] has as its system E. faecium CL 5242 (VanA). Described as above. The assay is classed as cell-based.
Description: as §1

Assay [7] concerns E. faecalis CL 4877 (VanB). Described as above. In kind it is cell-based.
Description: as §1

The test system of assay [8] is E. faecalis CL 5244 (VanB). Described as above. In kind it is cell-based.
Description: as §1

The test system of assay [9] is VISA/MRSA CL 5706. The assay is described as above. In kind it is cell-based, S. aureus. Conditions: VISA/MRSA CL 5706 (Mu 50).
Description: as §1

For assay [10], the system named is VISA/MRSA CL 5705. The assay is described as above. In kind it is cell-based, S. aureus. Conditions: VISA/MRSA CL 5705 (Mu 3).
Description: as §1

In assay [11] the test system is MSSA MB2985. Described as above. The assay is classed as cell-based, Staphylococcus aureus.
Description: as §1

The test system of assay [12] is MRSA CL 3033. Described as above. The assay is classed as cell-based, Staphylococcus aureus.
Description: as §1

In assay [13] the test system is MRSA COL. The assay is described as above. In kind it is cell-based, Staphylococcus aureus.
Description: as §1

Assay [14] deals with MRCNS (S. haem.) CL 171. Described as above. The assay is classed as cell-based.
Description: as §1

Assay [15] concerns MRCNS (S. epi.) CL 3069. The assay is described as above. The assay is classed as cell-based.
Description: as §1

The subject of assay [16] is MRCNS (S. hom.) CL 227. Described as above. In kind it is cell-based.
Description: as §1

The subject of assay [17] is MRCNS (S. hom.) CL 546. The description is as above. The assay is classed as cell-based.
Description: as §1

For assay [18], the system named is MRCNS (S. haem.) CL 202. The description is as above. In kind it is cell-based.
Description: as §1

Assay [19] relates to methicillin-sensitive Staphylococcus aureus (MSSA) strain MB2985. Conditions: due to binding of the antibiotic; cited from earlier work.

In the case of `CC1(C)S[C@@H]2[C@H](NC(=O)[C@H](N)c3ccccc3)C(=O)N2[C@H]1C(=O)O` [Amp, ampicillin], the “Phenotype Amp” value in [1] is on record as “R (≧16)”; in assay [2], “R (≧16)”; in assay [3], “R (≧16)”; in [4], “S (≦8)”; in assay [5], “S (≦8)”; in [6], “R (≧16)”. Also, the “Phenotype Amp” value is “S (≦8)” in assay [7]; “S (≦8)” in assay [8]; “R (≧0.5)” in [9]; “R (≧0.5)” in assay [10]; “S (≦0.25)” in assay [11]; “R (≧0.5)” in [12]. Also, the “Phenotype Amp” value in [13] is listed as “R (≧0.5)”.
For the molecule `C[C@@H](O)[C@H]1C(=O)N2C(C(=O)O)=C(SCCN=CN)C[C@H]12` [Ipm, imipenem], the “Phenotype Ipm” value in [14], in assay [15], in assay [16], in assay [17], in assay [18] and in assay [9] was “R (≧16)” each time. The “Phenotype Ipm” value in assay [10] is “R (≧16)”; in [11] it was “S (≦4)”; in [12] it was “R (≧16)”; in assay [13], “R (≧16)”.
As to `CCSC1=C(C(=O)O)N2C(=O)[C@H]([C@@H](C)O)[C@H]2S1` [Schering 29482], the “activity in the presence of Human Serum Albumin or Fraction V” value in [19] is “reduced activity”.
On to `CN[C@H](CC(C)C)C(=O)N[C@H]1C(=O)N[C@@H](CC(N)=O)C(=O)N[C@H]2C(=O)N[C@H]3C(=O)N[C@H](C(=O)N[C@H](C(=O)O)c4cc(O)cc(O)c4-c4cc3ccc4O)[C@H](O)c3ccc(c(Cl)c3)Oc3cc2cc(c3O[C@@H]2O[C@H](CO)[C@@H](O)[C@H](O)[C@H]2O[C@H]2C[C@](C)(N)[C@H](O)[C@H](C)O2)Oc2ccc(cc2Cl)[C@H]1O` [Van, vancomycin], for which the “Phenotype Van” value in assay [1] is “R (≧32)”; in assay [2], “R (≧32)”; in assay [3], “S (≦4)”; in [14], “S (≦4)”; in assay [15], “S (≦4)”; in assay [4], “I (8-16)”. For the same molecule, the “Phenotype Van” value is recorded as “S (≦4)” in assay [5]; “R (≧32)” in assay [6]; “S (≦4)” in [16]; “S (≦4)” in [17]; “S (≦4)” in assay [18]; “R (≧32)” in assay [7]. Moreover, the “Phenotype Van” value is on record as “R (≧32)” in [8]; “I (8-16)” in assay [9]; “S (≦4)” in assay [10]; “S (≦4)” in assay [11]; “S (≦4)” in [12]; “S (≦4)” in [13].
Take gentamicin: the “Phenotype Gent” value is recorded as “R (>500)” in assay [1]; “R (>500)” in assay [2]; “S (≦500)” in [3]; “R (>500)” in assay [4]; “S (≦500)” in [5]; “R (>500)” in assay [6]. Also, the “Phenotype Gent” value in [7] is “R (>500)”; in assay [8], “S (≦500)”; in assay [9], “R (≧16)”; in assay [10], “R (≧16)”; in [11], “S (≦4)”; in [13], “S (≦4)”.
